“Also recorded” adds a separate entry of the source.
Test system: LRP-CTF
Test: LRP C-terminal fragment (CTF) western after DAPT treatment
Format: cell-based, mouse
Conditions: N2a cells cotransfected with LC-myc and empty vector, BACE or catalytically inactive BACE; DAPT treatment for 12 h vs vehicle
Protocol: FIG. 11 depicts a LRP CTF western. […] Shown is the intensity of a representative blot out four experiments without DAPT treatment and two with DAPT treatment.
The proteins were transferred to immobilon-P membrane (Millipore, Bedford, Mass.). Staining was performed according to Licor odyssey instructions and LRP light chain was detected by rabbit anti-myc Ab with 680 gt anti rabbit secondary and visualized on the Licor odyssey.
After cotransfection of LRP with BACE we saw an increase of LRP-CTF as well as in non-treated cells and even more after DAPT treatment.

## C[C@H](NC(=O)Cc1cc(F)cc(F)c1)C(=O)N[C@H](C(=O)OC(C)(C)C)c1ccccc1 [DAPT]
  LRP-CTF 25 kDa band intensity (western blot): increase of the LRP-CTF 25 kDa band; also recorded: increase of CTF intensity
